ChEMBL document CHEMBL1126675, “Structure-based design of inhibitors of purine nucleoside phosphorylase. 1. 9-(arylmethyl) derivatives of 9-deazaguanine” (J Med Chem, 1993)

Experiments:
[1] = target: T1, Purine nucleoside phosphorylase (Bos taurus, UniProt P55859); experiment: Inhibition of purine nucleoside phosphorylase against the enzyme from calf spleen in 1 mM phosphate
T1 sequence (P55859 whole entry): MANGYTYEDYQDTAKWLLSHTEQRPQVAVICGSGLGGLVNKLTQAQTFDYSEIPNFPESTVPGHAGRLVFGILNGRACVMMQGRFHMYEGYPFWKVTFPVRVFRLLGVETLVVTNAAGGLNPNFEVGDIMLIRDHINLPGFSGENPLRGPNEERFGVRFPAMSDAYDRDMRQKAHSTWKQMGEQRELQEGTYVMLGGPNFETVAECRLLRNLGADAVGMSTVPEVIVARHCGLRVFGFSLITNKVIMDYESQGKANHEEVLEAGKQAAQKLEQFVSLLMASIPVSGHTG

[2] = target: T1, Purine nucleoside phosphorylase; experiment: Inhibition of Purine nucleoside phosphorylase was evaluated against the enzyme from calf spleen in 50 mM phosphate
[3] = target: T2, Purine nucleoside phosphorylase (Homo sapiens, UniProt P00491); experiment: Inhibition of Purine nucleoside phosphorylase was evaluated against the enzyme from Human erythrocytic in 50 mM phosphate; type: tissue-based
T2 sequence (P00491 whole entry): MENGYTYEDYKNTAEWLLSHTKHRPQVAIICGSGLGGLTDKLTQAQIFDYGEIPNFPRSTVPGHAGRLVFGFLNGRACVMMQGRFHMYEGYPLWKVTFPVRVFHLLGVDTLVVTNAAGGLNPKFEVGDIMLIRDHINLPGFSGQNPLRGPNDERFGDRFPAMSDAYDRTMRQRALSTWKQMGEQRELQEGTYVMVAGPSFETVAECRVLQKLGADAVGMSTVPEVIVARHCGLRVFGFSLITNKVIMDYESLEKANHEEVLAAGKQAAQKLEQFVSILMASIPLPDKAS

[4] = target: T1, Purine nucleoside phosphorylase; experiment: Inhibition of Purine nucleoside phosphorylase was evaluated against the enzyme from calf spleen in 1 mM phosphate; type: tissue-based

SMILES: Nc1nc(O)c2[nH]cc(Cc3ccco3)c2n1
- IC50 [1]: 83 nM

SMILES: Nc1nc(O)c2nc(N)n(Cc3cccs3)c2n1
- IC50 [2]: 160 nM
- IC50 [1]: 160 nM

SMILES: Nc1nc(O)c2c(n1)CC(Cc1ccsc1)=N2
- IC50 [3]: 67 nM

SMILES: Nc1nc(O)c2c(n1)CC(Cc1ccccc1)=N2
- IC50 [3]: 85 nM

SMILES: Nc1nc2c(Cc3ccc(Cl)c(Cl)c3)c[nH]c2c(=O)[nH]1
- IC50 [2]: 250 nM
- IC50 [1]: 17 nM

SMILES: Cc1ccsc1CNc1nc2[nH]c(N)nc(O)c-2n1
- IC50 [3]: 4050 nM

SMILES: Cc1cccc(Cc2c[nH]c3c(=O)[nH]c(N)nc23)c1
- IC50 [2]: 270 nM
- IC50 [1]: 57 nM

SMILES: Nc1nc(O)c2[nH]c(NCc3cccs3)nc2n1
- IC50 [3]: 160 nM

SMILES: Cc1ccsc1Cc1nc2nc(N)[nH]c(=O)c2[nH]1
- IC50 [3]: 47600 nM

SMILES: Nc1nc2nc(NCc3ccsc3)[nH]c2c(=O)[nH]1
- IC50 [3]: 85 nM

SMILES: Nc1nc(O)c2c(n1)CC(NCc1cccs1)=N2
- IC50 [3]: 1000 nM

SMILES: Nc1nc(O)c2c(n1)CC(NCc1ccsc1)=N2
- IC50 [3]: 630 nM

SMILES: Nc1nc2nc(NCc3ccccc3)[nH]c2c(=O)[nH]1
- IC50 [3]: 470 nM

SMILES: Nc1nc(O)c2[nH]c(NCc3ccco3)nc2n1
- IC50 [3]: 250 nM

SMILES: NC1=NC(=O)C2NC=C(Cc3ccccc3)C2N1 (configuration not stated)
- Ki [2]: 100 nM
- Ki [4]: 12 nM

SMILES: NC1=NC(=O)C2NC(N)=C(Cc3ccsc3)C2N1 (configuration not stated)
- IC50 [1]: 0.63 nM

SMILES: Nc1nc(O)c2[nH]c(Nc3cccnc3)nc2n1
- IC50 [3]: 21900 nM

SMILES: Nc1nc(O)c2c(n1)CC(Cc1cccs1)=N2
- IC50 [3]: 30 nM

SMILES: Nc1nc(O)c2c(n1)CC(NCc1ccco1)=N2
- IC50 [3]: 750 nM

SMILES: NC1=NC(=O)C2NC=C(Cc3ccsc3)C2N1 (configuration not stated)
- Ki [4]: 15 nM
- IC50 [1]: 0.067 nM

SMILES: Nc1nc(O)c2[nH]c(Cc3cccs3)nc2n1
- IC50 [3]: 11000 nM

SMILES: Nc1nc(O)c2c(n1)CC(NCc1ccccc1)=N2
- IC50 [3]: 850 nM

SMILES: Cc1ccsc1CC1=Nc2c(O)nc(N)nc2C1
- IC50 [3]: 47600 nM

SMILES: Nc1nc2c(Cc3cccc(F)c3)c[nH]c2c(=O)[nH]1
- IC50 [2]: 220 nM
- IC50 [1]: 24 nM

SMILES: Nc1nc(O)c2[nH]cc(Cc3ccc(O)cc3)c2n1
- IC50 [2]: 2300 nM
- IC50 [1]: 260 nM

SMILES: Nc1nc(O)c2[nH]cc(Cc3cc(Cl)cc(Cl)c3Cl)c2n1
- IC50 [2]: 10000 nM
- IC50 [1]: 240 nM

SMILES: Nc1nc(O)c2c(n1)CC(Cc1ccco1)=N2
- IC50 [3]: 57 nM

SMILES: Nc1nc(O)c2c(n1)CC(c1cccnc1)=N2
- IC50 [2]: 0.16 nM

SMILES: Nc1nc(O)c2[nH]c(Cc3ccsc3)nc2n1
- IC50 [3]: 11000 nM

SMILES: Nc1nc(O)c2[nH]c(Cc3ccco3)nc2n1
- IC50 [3]: 17900 nM

SMILES: Nc1nc(O)c2[nH]cc(Cc3ccccc3Cl)c2n1
- IC50 [2]: 2520 nM
- IC50 [1]: 120 nM

SMILES: Nc1nc(O)c2[nH]c(Cc3ccccc3)nc2n1
- IC50 [3]: 29600 nM

SMILES: Nc1nc2nc(-c3cccnc3)[nH]c2c(=O)[nH]1
- IC50 [3]: 57000 nM

SMILES: Nc1nc2c(Cc3ccccc3O)c[nH]c2c(=O)[nH]1
- IC50 [2]: 2000 nM
- IC50 [1]: 270 nM

SMILES: Nc1nc2c(Cc3cccc(Oc4ccccc4)c3)c[nH]c2c(=O)[nH]1
- IC50 [2]: 740 nM

SMILES: Cc1ccsc1CNC1=Nc2c(O)nc(N)nc2C1
- IC50 [3]: 4050 nM

SMILES: Nc1nc2c(Cc3ccc(I)cc3)c[nH]c2c(=O)[nH]1
- IC50 [2]: 270 nM
- IC50 [1]: 23 nM

SMILES: Nc1nc2c(Cc3cccc(Cl)c3)c[nH]c2c(=O)[nH]1
- IC50 [2]: 150 nM
- IC50 [1]: 20 nM

SMILES: Nc1nc2c(Cc3cccnc3)c[nH]c2c(=O)[nH]1 [PELDESINE]
- IC50 [2]: 190 nM
- IC50 [1]: 25 nM

SMILES: Nc1nc2c(Cc3cccc(C(F)(F)F)c3)c[nH]c2c(=O)[nH]1
- IC50 [2]: 190 nM
- IC50 [1]: 36 nM

SMILES: Nc1nc(O)c2[nH]cc(Cc3ccsc3)c2n1
- IC50 [1]: 25 nM

SMILES: COc1cccc(Cc2c[nH]c3c(O)nc(N)nc23)c1
- IC50 [2]: 660 nM
- IC50 [1]: 82 nM
